Converted amounts (≈) assume the structure as drawn. “And” between values parts separate entries of the source, which are not always exact repeats. Equal values may be shown once.
Key:
[1] = Free radical scavenging activity (antioxidant assay); assay type: biochemical
Excerpt: Evaluation of in-vitro cytotoxic potential of herbal products in human Lung cancer cell line (A549) by antioxidant assay: […] These substances may have potential as cytotoxic agents for further investigation. In an embodiment, free radical scavenging activity as per IC50 value: […]

[2] = MTT cytotoxicity assay; assay type: cell-based; details: human
Method: (§1) Human Lung carcinoma epithelial cell line, A549 cell line was obtained from the National Centre for Cell Sciences (NCCS, Pune). The cell line was cultured in DMEM (Himedia), supplemented with 10% fetal bovine serum (Sigma-Aldrich), 25 U/ml penicillin, and […] streptomycin (Himedia) at 37° ° C. in a water-saturated atmosphere of 95% air and 5% CO2. The experiments were repeated three times and average OD (absorbance values) were taken and plotted
8 test compounds (Wheatgrass, Ginger, Garlic, Tulsi, Green tea, Ashwagandha, 95% extract of Piperine and Turmeric) were obtained from the formulation department of Dabur Research Foundation, Sahibabad, Ghaziabad, U.P. 201010. 100 mg of the test compounds was weighed and dissolved in DMSO. After that, it was vortexed thoroughly followed by centrifugation. The clear supernatant was then used for further experimentation.
as §1, with “Cell culture Human” for “Human”, “37°” for “37° °”, “CO2.” for “CO2. The experiments were repeated three times and average OD (absorbance values) were taken and plotted”
The effect of DMSO extracts of 8 test compounds (Wheatgrass, Ginger, Garlic, Tulsi, Green tea, Ashwagandha, 95% extract of Piperine and Turmeric) on A549 human lung carcinoma epithelial cell line was observed by MTT (3-(4,5-dimethylthiazol-2-yl)-2,5-diphenyl tetrazolium bromide) assay. MTT reagent was purchased from Sigma (Darmstadt, Germany). Cells were counted on a hemocytometer and 10,000 cells/well were plated in 96 well plate in 180 μl of complete media (containing 10% of FBS).
Cells were treated with different concentrations (0.01, 0.1, 1, 10, 50, 100 μg/ml) of Wheatgrass, Ginger, Garlic, Tulsi, Green tea & Ashwagandha extracts and at concentrations (0.001, 0.01, 0.1, 1, 10 and 50 μg/ml) of 95% extract of Piperine and Turmeric for 72 hr. After the stipulated time, MTT solution (5 mg/ml) was added to each well and incubated for 3 hr. The purple-colored precipitate of formazan was dissolved in 150 μl of DMSO (Sigma-Aldrich) by proper mixing. The color absorbance of each well was recorded at 570 nm in a Bioteck microplate reader with a reference serving as blank. Then, IC50 values of DMSO extracts of 8 test compounds were calculated.
Statistical analysis MTT Data were analyzed by using Microsoft office Excel Software.

SMILES | IC 50 value (free radical scavenging) [1] [µg/mL] | % Inhibition ([1]; 1 μg/ml) [%] | % Inhibition ([1]; 10 μg/ml) | % Inhibition ([1]; 20 μg/ml) | % Inhibition ([1]; 30 μg/ml) | % Inhibition ([1]; 40 μg/ml) | % Inhibition ([1]; 50 μg/ml) | % Inhibition ([1]; 100 μg/ml) | IC50 at 72 h [2] [µM] | cytotoxicity at 72 h, 0.1 µM [2] [%] | cytotoxicity at 72 h, 1 µM [2] [%] | cytotoxicity at 72 h, 10 µM [2] [%] | cytotoxicity at 72 h, 25 µM [2] [%] | cytotoxicity at 72 h, 50 µM [2] [%]
O=C1O[C@H]([C@@H](O)CO)C(O)=C1O [Ascorbic Acid] | 37.54 (≈ 213 µM) | 2.3 | 13% and 13.2% | 24% and 24.4% | 38% and 37.6% | 51% and 50.8% | 63% and 62.6% | 90% and 90.4% |  |  |  |  |  | 
COc1cccc2c1C(=O)c1c(O)c3c(c(O)c1C2=O)C[C@@](O)(C(=O)CO)C[C@@H]3O[C@H]1C[C@H](N)[C@H](O)[C@H](C)O1 [Doxorubicin] |  |  |  |  |  |  |  |  | 9.39 | 11.7 | 19.3 | 51 | 66.2 | 69.2

From patent publication US12714735B2, “Herbal composition for cancer” (priority 2024, dated 2026)
